Source: the NIST ThermoML archive (doi:10.1021/je049973v)

Details: Liquid; for speed of sound: Pulse-echo method; for mass density: Vibrating tube method

CCCCCCCCCCCCCCCCCc1ccccc1 [heptadecane, 1-phenyl-]
Details	mass density [kg/m3]	speed of sound [m/s]
303.15 K, 100 kPa	847.62	1422.6
303.15 K, 5000 kPa	850.37	–
303.15 K, 10000 kPa	853.14	1467.5
303.15 K, 15000 kPa	855.85	–
303.15 K, 20000 kPa	858.47	1510.9
303.15 K, 25000 kPa	861	–
303.15 K, 30000 kPa	863.37	1552
303.15 K, 35000 kPa	865.81	–
303.15 K, 40000 kPa	868.19	1590.5
303.15 K, 45000 kPa	870.43	–
303.15 K, 50000 kPa	872.65	1627.2
303.15 K, 55000 kPa	874.7	–
303.15 K, 60000 kPa	876.93	1661.9
303.15 K, 70000 kPa	–	1695.6
313.15 K, 100 kPa	840.87	1387.1
313.15 K, 5000 kPa	843.75	–
313.15 K, 10000 kPa	846.65	1433.6
313.15 K, 15000 kPa	849.47	–
313.15 K, 20000 kPa	852.17	1479.2
313.15 K, 25000 kPa	854.73	–
313.15 K, 30000 kPa	857.38	1520.4
313.15 K, 35000 kPa	859.9	–
313.15 K, 40000 kPa	862.24	1559.7
313.15 K, 45000 kPa	864.56	–
313.15 K, 50000 kPa	866.8	1597.9
313.15 K, 55000 kPa	869.08	–
313.15 K, 60000 kPa	870.6	1633.6
313.15 K, 70000 kPa	–	1667.3
313.15 K, 80000 kPa	–	1700
313.15 K, 90000 kPa	–	1731.8
313.15 K, 100000 kPa	–	1762
313.15 K, 110000 kPa	–	1790.2
313.15 K, 120000 kPa	–	1818.7
313.15 K, 130000 kPa	–	1847.1
323.15 K, 100 kPa	834.27	1352.6
323.15 K, 5000 kPa	837.23	–
323.15 K, 10000 kPa	840.29	1402.3
323.15 K, 15000 kPa	843.15	–
323.15 K, 20000 kPa	845.93	1447.9
323.15 K, 25000 kPa	848.7	–
323.15 K, 30000 kPa	851.34	1490.8
323.15 K, 35000 kPa	853.89	–
323.15 K, 40000 kPa	856.43	1531.1
323.15 K, 45000 kPa	858.84	–
323.15 K, 50000 kPa	861.35	1569.2
323.15 K, 55000 kPa	863.55	–
323.15 K, 60000 kPa	865.8	1605.8
323.15 K, 70000 kPa	–	1640.7
323.15 K, 80000 kPa	–	1673.9
323.15 K, 90000 kPa	–	1705.8
323.15 K, 100000 kPa	–	1736.6
323.15 K, 110000 kPa	–	1766.3
323.15 K, 120000 kPa	–	1794.9
323.15 K, 130000 kPa	–	1822.8
323.15 K, 140000 kPa	–	1849.3
323.15 K, 150000 kPa	–	1875.5
333.15 K, 100 kPa	827.59	1319.9
333.15 K, 5000 kPa	830.84	–
333.15 K, 10000 kPa	833.94	1370.2
333.15 K, 15000 kPa	837.13	–
333.15 K, 20000 kPa	839.97	1417.3
333.15 K, 25000 kPa	842.84	–
333.15 K, 30000 kPa	845.52	1461.4
333.15 K, 35000 kPa	848.14	–
333.15 K, 40000 kPa	850.62	1502.9
333.15 K, 45000 kPa	853.3	–
333.15 K, 50000 kPa	855.69	1542.1
333.15 K, 55000 kPa	858	–
333.15 K, 60000 kPa	860.35	1579.2
333.15 K, 70000 kPa	–	1614.6
333.15 K, 80000 kPa	–	1648.7
333.15 K, 90000 kPa	–	1681.3
333.15 K, 100000 kPa	–	1712.2
333.15 K, 110000 kPa	–	1742.3
333.15 K, 120000 kPa	–	1771.7
333.15 K, 130000 kPa	–	1799.8
333.15 K, 140000 kPa	–	1826.9
333.15 K, 150000 kPa	–	1853.6
343.15 K, 100 kPa	820.95	1287
343.15 K, 5000 kPa	824.32	–
343.15 K, 10000 kPa	827.71	1338.7
343.15 K, 15000 kPa	830.75	–
343.15 K, 20000 kPa	833.93	1387.3
343.15 K, 25000 kPa	836.75	–
343.15 K, 30000 kPa	839.62	1432.3
343.15 K, 35000 kPa	842.4	–
343.15 K, 40000 kPa	845.11	1475.5
343.15 K, 45000 kPa	847.75	–
343.15 K, 50000 kPa	850.31	1515.3
343.15 K, 55000 kPa	852.73	–
343.15 K, 60000 kPa	855.09	1553.3
343.15 K, 70000 kPa	–	1589.5
343.15 K, 80000 kPa	–	1624.1
343.15 K, 90000 kPa	–	1657.2
343.15 K, 100000 kPa	–	1688
343.15 K, 110000 kPa	–	1719.2
343.15 K, 120000 kPa	–	1748.7
343.15 K, 130000 kPa	–	1777.4
343.15 K, 140000 kPa	–	1805
343.15 K, 150000 kPa	–	1832
353.15 K, 100 kPa	814.43	1255.2
353.15 K, 5000 kPa	817.93	–
353.15 K, 10000 kPa	821.35	1308.6
353.15 K, 15000 kPa	824.69	–
353.15 K, 20000 kPa	827.9	1359.3
353.15 K, 25000 kPa	830.86	–
353.15 K, 30000 kPa	833.85	1405.3
353.15 K, 35000 kPa	836.9	–
353.15 K, 40000 kPa	839.55	1448.5
353.15 K, 45000 kPa	842.1	–
353.15 K, 50000 kPa	844.78	1489.5
353.15 K, 55000 kPa	847.34	–
353.15 K, 60000 kPa	849.77	1528.3
353.15 K, 70000 kPa	–	1564.8
353.15 K, 80000 kPa	–	1600.1
353.15 K, 90000 kPa	–	1633.4
353.15 K, 100000 kPa	–	1665.5
353.15 K, 110000 kPa	–	1696.9
353.15 K, 120000 kPa	–	1726.9
353.15 K, 130000 kPa	–	1755.8
353.15 K, 140000 kPa	–	1783.8
353.15 K, 150000 kPa	–	1811.1
363.15 K, 100 kPa	807.8	1223.6
363.15 K, 5000 kPa	811.3	–
363.15 K, 10000 kPa	815.14	1278.7
363.15 K, 15000 kPa	818.57	–
363.15 K, 20000 kPa	821.81	1330.3
363.15 K, 25000 kPa	824.97	–
363.15 K, 30000 kPa	828	1378
363.15 K, 35000 kPa	830.94	–
363.15 K, 40000 kPa	833.81	1422.2
363.15 K, 45000 kPa	836.5	–
363.15 K, 50000 kPa	839.26	1464
363.15 K, 55000 kPa	841.95	–
363.15 K, 60000 kPa	844.41	1503.3
363.15 K, 70000 kPa	–	1541.1
363.15 K, 80000 kPa	–	1576.4
363.15 K, 90000 kPa	–	1610.7
363.15 K, 100000 kPa	–	1643.4
363.15 K, 110000 kPa	–	1674.6
363.15 K, 120000 kPa	–	1705
363.15 K, 130000 kPa	–	1734.4
363.15 K, 140000 kPa	–	1763.3
363.15 K, 150000 kPa	–	1790
373.15 K, 100 kPa	801.11	1193
373.15 K, 5000 kPa	805.07	–
373.15 K, 10000 kPa	808.86	1249.5
373.15 K, 15000 kPa	812.48	–
373.15 K, 20000 kPa	815.93	1302.6
373.15 K, 25000 kPa	819.17	–
373.15 K, 30000 kPa	822.4	1351.4
373.15 K, 35000 kPa	825.42	–
373.15 K, 40000 kPa	828.43	1396.8
373.15 K, 45000 kPa	831.28	–
373.15 K, 50000 kPa	834.03	1439.2
373.15 K, 55000 kPa	836.72	–
373.15 K, 60000 kPa	839.37	1479.7
373.15 K, 70000 kPa	–	1517.7
373.15 K, 80000 kPa	–	1553.8
373.15 K, 90000 kPa	–	1588.6
373.15 K, 100000 kPa	–	1621.8
373.15 K, 110000 kPa	–	1653.6
373.15 K, 120000 kPa	–	1684.3
373.15 K, 130000 kPa	–	1713.8
373.15 K, 140000 kPa	–	1742.7
373.15 K, 150000 kPa	–	1770.5
